Results from publication PMC4640567, “Cinnamic Acid Bornyl Ester Derivatives from Valeriana wallichii Exhibit Antileishmanial In Vivo Activity in Leishmania major-Infected BALB/c Mice” (PLoS ONE, 2015).
Values joined by “and” are separate entries in the source; they are usually repeats but may differ in a detail not shown here. Equal values may be shown once.

Columns and labels:
L. major promastigotes = assay: Annexin V / propidium iodide flow cytometry, cell death phenotype; type: cell-based, Leishmania major; settings: 100 μM
Procedure: L. major parasites harvested from blood agar cultures were washed twice with Dulbecco’s phosphate-buffered saline (DPBS; Invitrogen, Darmstadt, Germany) and centrifuged at 3.000 × g for 10 min. The pellet was suspended in RPMI 1640 medium at a final concentration of 1 × 10^8 cells/ml. Cells were treated with 1% DMSO, 122.7 μM miltefosine (1-hexadecylphorylcholine; apoptosis inducer), or 100 μM of the tested compounds 1 and 2 in a final volume of 200 μl in 96 well plates. Samples were incubated at 27°C in 5% CO2 for several time points between 30 min and 24 h. Transmitted light microscopic, transmission electron microscopic (TEM), and flow cytometric techniques were used to find phenotypic patterns caused by the treatment with the tested compounds.
The loss of membrane integrity and translocation of phosphatidylserine (PS) to the outside of the cellular membrane can be determined by annexin V (AV) and propidium iodide (PI) staining. Double staining with AV-fluorescein isothiocyanate (FITC) and PI during flow cytometry analysis leads to discrimination between four populations: double negatives or alive cells (AV^-/PI^-), double positive or late necrotic/late apoptotic cells (AV^+/PI^+), PI-positive and AV-negative or early necrotic cells (AV^-/PI^+), and PI-negative and AV-positive or early apoptotic cells (AV^+/PI^-).
Parasites were harvested after incubation for 6 h, 10 h, and 24 h in the presence of compounds 1, 2 and miltefosine (Cayman Chemical Company, MI, USA), respectively, the latter serving as positive control for the induction of apoptotic cell death. DMSO was used as solvent control. Cell staining was performed using an AV-FITC Apoptosis detection kit (Sigma-Aldrich, Saint Louis, MO, USA). Cells were harvested, washed and suspended in 500 μL of binding buffer, 5 μL of AV-FITC and 10 μl of PI. The cells were incubated for 10 min in the dark at RT. Finally, stained samples were immediately analyzed by flow cytometry using MACSQuant analyzer or a flow cytometer (Becton Dickinson, San José, CA, USA).

[1] = test system: L. donovani promastigotes; assay: MTT assay, L. donovani (AG83) promastigotes; type: cell-based; settings: Leishmania donovani, tested at 10, 50, 100 μM, read-out: Cytotoxicity (μM) L. donovani promastigotes (IC50)
Procedure: L. donovani promastigotes (strain: MHOM/IN/1983/AG83) were obtained from the Indian Institute of Chemical Biology, Kolkata, India. Promastigotes were cultured in Schneider’s insect medium (Sigma-Aldrich Co., St. Louis, USA) as described elsewhere.
Antiparasitic activities of compounds 1 and 2 dissolved in dimethyl sulfoxide (DMSO, E. Merck, India) against L. donovani (AG83) promastigotes were determined by a quantitative colorimetric assay using the 3-(4, 5- dimethylthiazol-2-yl)-2, 5-diphenyl tetrazolium bromide (MTT) (Sisco Research Laboratory, Mumbai, India) test as described elsewhere. The compounds were tested at concentrations of 10 μM, 50 μM, and 100 μM and IC50 values (concentration of compound, which inhibited at least 50% cell metabolic activity) for each compound were determined from respective dose–response curves using Origin 5.0 software (Microcal Software, Inc., Northampton, MA, USA).

L. donovani = assay: Preliminary studies in L. donovani infected BALB/c mice; type: in vivo; settings: need further evaluation
L. major = assay: In vivo antileishmanial activity in L. major-infected BALB/c mice
Procedure: Female BALB/c mice (11 per group; three groups in total) were infected with 2 × 10^5 L. major promastigotes in 30 μL phosphate-buffered saline (PBS) into the right hind footpad under isoflurane inhalation anaesthesia using the UniVet Porta system (Groppler, Deggendorf, Germany). The clinical manifestation of L. major infection was monitored twice a week by determination of the body weight (g) and footpad size (mm) of the infected (iFP) and the non-infected footpad (niFP) serving as negative control. The footpad swelling describes the difference in mm between the iFP and niFP of individual mice. Three weeks post infection (p.i.) the mice were randomly divided into three groups of 11 for different treatment regimens. On day 21, 25, and 28 p.i. the respective groups were either left untreated, treated intraperitoneally (i.p.) with 100 μl of solvent (infected, 50% DMSO/PBS) or 100 μl 50 mg/kg/day of compound 2 in 50% DMSO/PBS. This high dose of compound 2 was chosen to identify its antileishmanial in vivo efficacy in L. major-infected BALB/c mice. The close monitoring of body weight and footpad swelling was continued until the end of experiment. On day 35 p.i. mice were sacrificed by CO2 inhalation and single cell suspensions from the iFP, draining popliteal lymph nodes (pLN) and spleens were obtained. The parasite burden was determined by limiting dilution assays as described previously. It was not necessary to apply any analgesics or anaesthetics during the animal trials.

[2] = 50 mg/kg/day i.p. days 21, 25, 28, day 35 p.i.

| Structure (SMILES) | LL: live cells (AV-/PI-) (L. major promastigotes; 6 h) [%] | LR: early apoptotic cells (AV+/PI-) (L. major promastigotes; 6 h) [%] | UL: early necrotic cells (AV-/PI+) (L. major promastigotes; 6 h) [%] | UR: necrotic/late apoptotic cells (AV+/PI+) (L. major promastigotes; 6 h) [%] | LL: live cells (AV-/PI-) (L. major promastigotes; 10 h) [%] | LR: early apoptotic cells (AV+/PI-) (L. major promastigotes; 10 h) [%] | UL: early necrotic cells (AV-/PI+) (L. major promastigotes; 10 h) [%] | UR: necrotic/late apoptotic cells (AV+/PI+) (L. major promastigotes; 10 h) [%] | Induced cell death phenotype (per definition) (L. major promastigotes; 24 h) | LL: live cells (AV-/PI-) (L. major promastigotes; 24 h) | LR: early apoptotic cells (AV+/PI-) (L. major promastigotes; 24 h) | UL: early necrotic cells (AV-/PI+) (L. major promastigotes; 24 h) | UR: necrotic/late apoptotic cells (AV+/PI+) (L. major promastigotes; 24 h) | IC50 [1] [µM] | Antileishmanial in vivo activity (L. donovani) | further results |
| --- | --- | --- | --- | --- | --- | --- | --- | --- | --- | --- | --- | --- | --- | --- | --- | --- |
| CC1(C)C2CCC1(C)C(OC(=O)C=Cc1ccccc1)C2 (single isomer, unassigned; (-)) [Compound 1, (-)-Bornyl cinnamate] | 71.3 | 3.7 | 12.3 | 12.7 | 69.3 | 4.2 | 12.9 | 13.6 | necrotic cell death phenotype | 33% and 33.2% | 4.1% | 30% and 29.8% | 33% and 32.9% | 15.6 | promising antileishmanial in vivo activities |  |
| CC1(C)C2CCC1(C)C(OC(=O)CCc1ccccc1)C2 (single isomer, unassigned; (-)) [Compound 2, (-)-bornyl 3-phenylpropionate] | 54.4 | 8.8 | 10.7 | 26.1 | 47.2 | 9.3 | 16.8 | 26.7 | miltefosine-like cell death | 21% and 20.6% | 19% and 18.5% | 24% and 24.2% | 37% and 36.7% | > 100 | promising antileishmanial in vivo activities | Side effects in vivo (L. major; 50 mg/kg/day i.p. days 21, 25, 28): did not have any strong side effects; Parasite burden in the spleen (LDA) (L. major; [2]): only numerically reduced; Reduction of parasite burden within the infected footpads (LDA) (L. major; [2]): ~ 100 fold; Reduction of parasite burden within the popliteal lymph nodes (LDA) (L. major; [2]): ~ 10.000 fold; Body weight of infected mice (L. major; 50 mg/kg/day i.p. on days 21, 25, 28 p.i., during the treatment regimen): not affected; Footpad swelling (difference between infected and non-infected footpad) (L. major; 50 mg/kg/day i.p. on days 21, 25, 28 p.i., vs untreated or solvent control-treated mice): reduced footpad swelling |
